Patent US20170354670A1, “PRODUCT COMPRISING GLUCOSAMINE FOR EXTERNAL APPLICATION” (Vital Medicine, LLC, priority 2016, published 2017)

Tested on: foot complaints (tired, achy, sore)
Experiment: Foot bath study of foot pain (100 mm visual analogue scale) versus sucrose sham
Format: in vivo, human
Source text: Subjects: Normal healthy adults aged 40-75 with daily reported foot complaints (tired, achy, sore) that are not currently taking prescription or over the counter products for symptom relief. An attempt is made to recruit equal numbers of male and female participants. Sample Size: 40 subjects; 20 per group Treatment groups: Soothing foot bath topical fluid application apparatus (Glucosamine KCl), group A; Sham: Sucrose foot bath topical fluid application apparatus, group B. Methods: Recruitment—Questionnaire evaluating health status and foot complaints; including visual analogue scale evaluation of current pain state. Baseline—Questionnaire evaluating health status and foot complaints; including visual analogue scale evaluation of current pain state. Treatment—Subjects are randomly assigned to one of two treatment groups and asked to submerge their right foot in a plastic box that contains 3 liters of room temperature tap water and 2 liters of boiling water plus one packet (50 grams) of the labeled “treatment pack” and stirred until in solution. Label is removed from pack and placed on chart. Foot remains submerged and stopwatch set for 1 hour. At the end of 1 hour, subject foot is dried and subject is asked to mark on the line (100 mm) the current state of their foot pain upon standing. […]

N[C@H]1C(O)OC(CO)[C@@H](O)[C@@H]1O (stereo partly drawn) [glucosamine, (3R,4R,5S)-3-Amino-6-(hydroxymethyl)oxane-2,4,5-triol]
pain relief compared with sucrose sham, duration (72 hours after treatment, single 1 hour foot bath, 50 grams in 5 liters water, many subjects): greater pain relief
pain relief compared with sucrose sham (group B) (healthy adults aged 40-75 with daily foot complaints, right foot submerged 1 hour in 5 liters water with 50 grams treatment pack, visual analogue scale): sufficiently better pain relief
